Laboratory results: ChEMBL document CHEMBL5579825, “Exploration of 1-(indolin-1-yl)-2-(thiazol-2-yl)ethan-1-one derivatives as novel anti-HBV agent with potential TLR7-agonistic effect” (Eur J Med Chem, 2024)
The source made the active and inactive calls. The rule behind the calls is not given here.

What was measured:
[1] = Selectivity index, ratio of CC50 for human HepG2.A64 cells to IC50 for HBV infected in human HepG2.A64 cells assessed as inhibition of viral DNA replication; assay type: toxicity, cell-based; conditions: read-out: Ratio CC50/IC50
[2] = Selectivity index, ratio of CC50 for human HepG2.2.15 cells to IC50 for HBV infected in human HepG2.2.15 cells assessed as inhibition of viral DNA replication; assay type: toxicity, cell-based; conditions: HepG2.2.15 cells, read-out: Ratio CC50/IC50
[3] = test system: Hepatitis B virus; experiment: Antiviral activity against HBV infected in human HepG2.2.15 cells assessed as inhibition of viral DNA replication at 4 uM pre-transfected cells with viral genome followed by compound treatment for 72 hrs by RT-PCR analysis relative to control; assay type: functional
[4] = Inhibition of HBsAg secretion in human HepG2.2.15 cells treated for 6 days with replacement of medium containing compound on every 2 days by […]; assay type: functional, cell-based; conditions: HepG2 2.2.15
[5] = test system: Hepatitis B virus; experiment: Antiviral activity against HBV infected in human HepG2.2.15 cells assessed as inhibition of viral DNA replication pre-transfected cells with viral genome followed by compound treatment for 6 days with replacement of medium containing compound on every 2 days by RT-PCR analysis; assay type: functional, organism-based
[6] = Cytotoxicity against human HepG2.A64 cells incubated for 72 hrs by CCK8 assay; assay type: toxicity, cell-based
[7] = Cytotoxicity against human HepG2.2.15 cells incubated for 72 hrs by CCK8 assay; assay type: toxicity, cell-based, HepG2 2.2.15
[8] = Selectivity index, ratio of CC50 for human HepG2.2.15 cells to IC50 for HBsAg secretion in human HepG2.2.15 cells; assay type: toxicity, cell-based; conditions: for selectivity ratio: HepG2.2.15 cells, read-out: Ratio CC50/IC50
[9] = test system: Hepatitis B virus; experiment: Antiviral activity against HBV infected in LAM/ETV-resistant human HepG2.A64 cells assessed as inhibition of viral DNA replication at 4 uM pre-transfected cells with viral genome followed by compound treatment for 72 hrs by RT-PCR analysis relative to control; assay type: functional
[10] = test system: Hepatitis B virus; experiment: Antiviral activity against HBV infected in human HepG2.A64 cells assessed as inhibition of viral DNA replication pre-transfected cells with viral genome followed by compound treatment for 3 days by RT-PCR analysis; assay type: functional, organism-based; conditions: HepG2.A64, 72 h
[11] = test system: Hepatitis B virus; experiment: Antiviral activity against HBV infected in human HepG2.2.15 cells assessed as inhibition of viral DNA replication at 4 uM pre-transfected cells with viral genome followed by compound treatment for 6 days with replacement of medium containing compound on every 2 days by RT-PCR analysis relative to control; assay type: functional; conditions: for inhibition at 4 µM: HepG2.2.15, 144 h, time 6 day; for inhibition: time 6.0 day
[12] = test system: Hepatitis B virus; experiment: Antiviral activity against HBV infected in human HepG2.2.15 cells assessed as inhibition of viral DNA replication at 100 uM pre-transfected cells with viral genome followed by compound treatment for 72 hrs by RT-PCR analysis relative to control; assay type: functional
[13] = test system: Hepatitis B virus; experiment: Antiviral activity against HBV infected in LAM/ETV-resistant human HepG2.A64 cells assessed as inhibition of viral DNA replication at 100 uM pre-transfected cells with viral genome followed by compound treatment for 72 hrs by RT-PCR analysis relative to control; assay type: functional
[14] = test system: Hepatitis B virus; experiment: Antiviral activity against HBV infected in LAM/ETV-resistant human HepG2.A64 cells assessed as inhibition of viral DNA replication at 10 uM pre-transfected cells with viral genome followed by compound treatment for 72 hrs by RT-PCR analysis relative to control; assay type: functional
[15] = test system: Hepatitis B virus; experiment: Antiviral activity against HBV infected in human HepG2.2.15 cells assessed as inhibition of viral DNA replication at 10 uM pre-transfected cells with viral genome followed by compound treatment for 72 hrs by RT-PCR analysis relative to control; assay type: functional

O=C(Cc1csc(COc2ccccc2)n1)N1CCc2cc(Cl)ccc21
selectivity ratio [1]: > 35.1
selectivity ratio [2]: > 217
inhibition at 4 µM [3]: 74.5%
IC50 [4]: 26.1 µM
IC50 [5]: 0.23 µM
CC50 at 72 h [6]: > 20 µM
CC50 at 72 h [7]: > 50 µM
selectivity ratio [8]: > 1.92
inhibition at 4 µM [9]: 73.7%
IC50 [10]: 0.57 µM
inhibition at 4 µM [11]: 80%

O=C(Cc1csc(COc2ccccc2)n1)N1CCc2cccc(Cl)c21
selectivity ratio [2]: > 49.5
IC50 [4]: > 50 µM
IC50 [5]: 1.01 µM
CC50 at 72 h [7]: > 50 µM
Ratio CC50/IC50 [8]: Not Active
inhibition at 4 µM [11]: 65.9%

O=C(Cc1csc(COc2ccccc2)n1)N1CCc2cc(F)ccc21
inhibition at 4 µM [11]: 18.7%

O=C(Cc1csc(COc2ccccc2Cl)n1)N1CCc2ccccc21
inhibition at 4 µM [11]: 15.7%

Cc1cccc(OCc2nc(CC(=O)N3CCc4ccccc43)cs2)c1
selectivity ratio [2]: > 67.6
IC50 [4]: 20.4 µM
IC50 [5]: 0.74 µM
CC50 at 72 h [7]: > 50 µM
selectivity ratio [8]: > 2.45
inhibition at 4 µM [11]: 65.4%

Cc1ccc2c(c1)CCN2C(=O)Cc1csc(COc2ccccc2)n1
inhibition at 4 µM [11]: 40.5%

O=C(Cc1csc(COc2ccccc2)n1)N1CCc2ccccc21
selectivity ratio [2]: > 2.91
IC50 [4]: > 50 µM
IC50 [5]: 17.2 µM
CC50 at 72 h [7]: > 50 µM
Ratio CC50/IC50 [8]: Not Active
inhibition at 4 µM [11]: 45.4%

COc1ccc2c(c1)N(C(=O)Cc1csc(COc3ccccc3)n1)CC2
inhibition at 4 µM [11]: 18.6%

COc1cccc2c1N(C(=O)Cc1csc(COc3ccccc3)n1)CC2
inhibition at 4 µM [11]: 41.3%

COc1ccccc1OCc1nc(CC(=O)N2CCc3ccccc32)cs1
inhibition at 4 µM [11]: 45.5%

O=C(Cc1csc(COc2ccc(F)cc2)n1)N1CCc2ccccc21
inhibition at 4 µM [11]: 19.1%

Nc1ccn([C@@H]2CS[C@H](CO)O2)c(=O)n1 [LAMIVUDINE]
selectivity ratio [2]: > 1000
IC50 [4]: > 100 µM
IC50 [5]: < 0.1 µM
CC50 at 72 h [6]: > 100 µM
CC50 at 72 h [7]: > 100 µM
Ratio CC50/IC50 [8]: Not Active
inhibition at 100 µM [12]: 92.3%
inhibition at 100 µM [13]: 17.8%
IC50 [10]: > 100 µM
inhibition at 4 µM [11]: 90.8%

COc1ccc(OCc2nc(CC(=O)N3CCc4ccccc43)cs2)cc1
inhibition at 4 µM [11]: 34.5%

O=C(Cc1csc(COc2ccccc2)n1)N1CCc2cc(Br)ccc21
selectivity ratio [2]: > 132
IC50 [4]: > 50 µM
IC50 [5]: 0.38 µM
CC50 at 72 h [7]: > 50 µM
Ratio CC50/IC50 [8]: Not Active
inhibition at 4 µM [11]: 94%

O=C(Cc1csc(COc2cccc(Cl)c2)n1)N1CCc2ccccc21
inhibition [11]: inactive

Cc1cccc2c1N(C(=O)Cc1csc(COc3ccccc3)n1)CC2
inhibition at 4 µM [11]: 13.9%

O=C(Cc1csc(COc2ccccc2)n1)N1CCc2ccc(Cl)cc21
selectivity ratio [2]: > 80.7
IC50 [4]: 42.2 µM
IC50 [5]: 0.62 µM
CC50 at 72 h [7]: > 50 µM
selectivity ratio [8]: > 1.19
inhibition at 4 µM [11]: 59.6%

O=C(Cc1csc(COc2ccccc2)n1)N1CCc2c(F)cccc21
selectivity ratio [2]: > 12.8
IC50 [4]: 30.5 µM
IC50 [5]: 3.9 µM
CC50 at 72 h [7]: > 50 µM
selectivity ratio [8]: > 1.64
inhibition at 4 µM [11]: 52.2%

O=C(Cc1csc(COc2cccc(Br)c2)n1)N1CCc2ccccc21
selectivity ratio [2]: > 59.5
IC50 [4]: 42.7 µM
IC50 [5]: 0.84 µM
CC50 at 72 h [7]: > 50 µM
selectivity ratio [8]: > 1.17
inhibition at 4 µM [11]: 73.4%

O=C(Cc1csc(COc2ccccc2F)n1)N1CCc2cc(Br)ccc21
selectivity ratio [2]: > 116
IC50 [4]: 44.7 µM
IC50 [5]: 0.43 µM
CC50 at 72 h [7]: > 50 µM
selectivity ratio [8]: > 0.89
inhibition at 4 µM [11]: 72.6%

O=C(Cc1csc(COc2ccccc2)n1)N1CCc2ccc(F)cc21
inhibition at 4 µM [11]: 34.2%

O=C(Cc1csc(COc2ccccc2)n1)N1CCc2c(Br)cccc21
inhibition [11]: inactive

Cc1ccccc1OCc1nc(CC(=O)N2CCc3ccccc32)cs1
inhibition at 4 µM [11]: 22.6%

O=C(Cc1csc(COc2ccccc2)n1)N1CCc2cccc(Br)c21
selectivity ratio [2]: > 16.3
IC50 [4]: > 50 µM
IC50 [5]: 3.07 µM
CC50 at 72 h [7]: > 50 µM
Ratio CC50/IC50 [8]: Not Active
inhibition at 4 µM [11]: 51.6%

Cc1ccc(OCc2nc(CC(=O)N3CCc4ccccc43)cs2)cc1
inhibition at 4 µM [11]: 39.4%

Cc1ccc2c(c1)N(C(=O)Cc1csc(COc3ccccc3)n1)CC2
inhibition [11]: inactive

O=C(Cc1csc(COc2ccccc2)n1)N1CCc2c(Cl)cccc21
inhibition at 4 µM [11]: 33.9%

O=C(Cc1csc(COc2ccc(C(F)(F)F)cc2)n1)N1CCc2ccccc21
selectivity ratio [2]: > 76.9
IC50 [4]: 39.5 µM
IC50 [5]: 0.65 µM
CC50 at 72 h [7]: > 50 µM
selectivity ratio [8]: > 1.27
inhibition at 4 µM [11]: 70.2%

COc1cccc2c1CCN2C(=O)Cc1csc(COc2ccccc2)n1
inhibition at 4 µM [11]: 4.26%

O=C(Cc1csc(COc2ccccc2)n1)N1CCc2cccc(F)c21
inhibition at 4 µM [11]: 34.6%

COc1ccc2c(c1)CCN2C(=O)Cc1csc(COc2ccccc2)n1
selectivity ratio [2]: > 17.6
IC50 [4]: 39.1 µM
IC50 [5]: 2.84 µM
CC50 at 72 h [7]: > 50 µM
selectivity ratio [8]: > 1.28
inhibition at 4 µM [11]: 57.7%

O=C(Cc1csc(COc2cccc(C(F)(F)F)c2)n1)N1CCc2ccccc21
selectivity ratio [2]: > 14.2
IC50 [4]: 41.6 µM
IC50 [5]: 3.51 µM
CC50 at 72 h [7]: > 50 µM
selectivity ratio [8]: > 1.2
inhibition at 4 µM [11]: 50.9%

COc1cccc(OCc2nc(CC(=O)N3CCc4ccccc43)cs2)c1
inhibition at 4 µM [11]: 8.33%

O=C(Cc1csc(COc2ccc(Br)cc2)n1)N1CCc2ccccc21
inhibition at 4 µM [11]: 25.7%

O=C(Cc1csc(COc2cccc(F)c2)n1)N1CCc2ccccc21
inhibition [11]: inactive

O=C(Cc1csc(COc2ccccc2)n1)N1CCc2ccc(Br)cc21
inhibition at 4 µM [11]: 14.1%

O=C(Cc1csc(COc2ccccc2Br)n1)N1CCc2ccccc21
inhibition [11]: inactive

O=C(Cc1csc(COc2ccccc2C(F)(F)F)n1)N1CCc2ccccc21
selectivity ratio [2]: > 75.8
IC50 [4]: > 50 µM
IC50 [5]: 0.66 µM
CC50 at 72 h [7]: > 50 µM
Ratio CC50/IC50 [8]: Not Active
inhibition at 4 µM [11]: 74.5%

C=C1[C@H](CO)[C@@H](O)C[C@@H]1n1cnc2c(=O)[nH]c(N)nc21 [ENTECAVIR ANHYDROUS]
inhibition at 10 µM [14]: 20.1%
inhibition at 10 µM [15]: 98.1%
